{
  "source": "patent US11370761B2",
  "about": "“Voltage-dependent T-type calcium channel inhibitor” (Nippon Chemiphar Co., Ltd., priority 2017, dated 2022)",
  "note": "Structures can show the parent of a compound that is named as a salt.",
  "data": [
    {"target": "T1, human Cav3.2 channel (Homo sapiens, UniProt O95180)", "T1 construct": "expressed in transfected cells", "T1 sequence (O95180 whole entry)": "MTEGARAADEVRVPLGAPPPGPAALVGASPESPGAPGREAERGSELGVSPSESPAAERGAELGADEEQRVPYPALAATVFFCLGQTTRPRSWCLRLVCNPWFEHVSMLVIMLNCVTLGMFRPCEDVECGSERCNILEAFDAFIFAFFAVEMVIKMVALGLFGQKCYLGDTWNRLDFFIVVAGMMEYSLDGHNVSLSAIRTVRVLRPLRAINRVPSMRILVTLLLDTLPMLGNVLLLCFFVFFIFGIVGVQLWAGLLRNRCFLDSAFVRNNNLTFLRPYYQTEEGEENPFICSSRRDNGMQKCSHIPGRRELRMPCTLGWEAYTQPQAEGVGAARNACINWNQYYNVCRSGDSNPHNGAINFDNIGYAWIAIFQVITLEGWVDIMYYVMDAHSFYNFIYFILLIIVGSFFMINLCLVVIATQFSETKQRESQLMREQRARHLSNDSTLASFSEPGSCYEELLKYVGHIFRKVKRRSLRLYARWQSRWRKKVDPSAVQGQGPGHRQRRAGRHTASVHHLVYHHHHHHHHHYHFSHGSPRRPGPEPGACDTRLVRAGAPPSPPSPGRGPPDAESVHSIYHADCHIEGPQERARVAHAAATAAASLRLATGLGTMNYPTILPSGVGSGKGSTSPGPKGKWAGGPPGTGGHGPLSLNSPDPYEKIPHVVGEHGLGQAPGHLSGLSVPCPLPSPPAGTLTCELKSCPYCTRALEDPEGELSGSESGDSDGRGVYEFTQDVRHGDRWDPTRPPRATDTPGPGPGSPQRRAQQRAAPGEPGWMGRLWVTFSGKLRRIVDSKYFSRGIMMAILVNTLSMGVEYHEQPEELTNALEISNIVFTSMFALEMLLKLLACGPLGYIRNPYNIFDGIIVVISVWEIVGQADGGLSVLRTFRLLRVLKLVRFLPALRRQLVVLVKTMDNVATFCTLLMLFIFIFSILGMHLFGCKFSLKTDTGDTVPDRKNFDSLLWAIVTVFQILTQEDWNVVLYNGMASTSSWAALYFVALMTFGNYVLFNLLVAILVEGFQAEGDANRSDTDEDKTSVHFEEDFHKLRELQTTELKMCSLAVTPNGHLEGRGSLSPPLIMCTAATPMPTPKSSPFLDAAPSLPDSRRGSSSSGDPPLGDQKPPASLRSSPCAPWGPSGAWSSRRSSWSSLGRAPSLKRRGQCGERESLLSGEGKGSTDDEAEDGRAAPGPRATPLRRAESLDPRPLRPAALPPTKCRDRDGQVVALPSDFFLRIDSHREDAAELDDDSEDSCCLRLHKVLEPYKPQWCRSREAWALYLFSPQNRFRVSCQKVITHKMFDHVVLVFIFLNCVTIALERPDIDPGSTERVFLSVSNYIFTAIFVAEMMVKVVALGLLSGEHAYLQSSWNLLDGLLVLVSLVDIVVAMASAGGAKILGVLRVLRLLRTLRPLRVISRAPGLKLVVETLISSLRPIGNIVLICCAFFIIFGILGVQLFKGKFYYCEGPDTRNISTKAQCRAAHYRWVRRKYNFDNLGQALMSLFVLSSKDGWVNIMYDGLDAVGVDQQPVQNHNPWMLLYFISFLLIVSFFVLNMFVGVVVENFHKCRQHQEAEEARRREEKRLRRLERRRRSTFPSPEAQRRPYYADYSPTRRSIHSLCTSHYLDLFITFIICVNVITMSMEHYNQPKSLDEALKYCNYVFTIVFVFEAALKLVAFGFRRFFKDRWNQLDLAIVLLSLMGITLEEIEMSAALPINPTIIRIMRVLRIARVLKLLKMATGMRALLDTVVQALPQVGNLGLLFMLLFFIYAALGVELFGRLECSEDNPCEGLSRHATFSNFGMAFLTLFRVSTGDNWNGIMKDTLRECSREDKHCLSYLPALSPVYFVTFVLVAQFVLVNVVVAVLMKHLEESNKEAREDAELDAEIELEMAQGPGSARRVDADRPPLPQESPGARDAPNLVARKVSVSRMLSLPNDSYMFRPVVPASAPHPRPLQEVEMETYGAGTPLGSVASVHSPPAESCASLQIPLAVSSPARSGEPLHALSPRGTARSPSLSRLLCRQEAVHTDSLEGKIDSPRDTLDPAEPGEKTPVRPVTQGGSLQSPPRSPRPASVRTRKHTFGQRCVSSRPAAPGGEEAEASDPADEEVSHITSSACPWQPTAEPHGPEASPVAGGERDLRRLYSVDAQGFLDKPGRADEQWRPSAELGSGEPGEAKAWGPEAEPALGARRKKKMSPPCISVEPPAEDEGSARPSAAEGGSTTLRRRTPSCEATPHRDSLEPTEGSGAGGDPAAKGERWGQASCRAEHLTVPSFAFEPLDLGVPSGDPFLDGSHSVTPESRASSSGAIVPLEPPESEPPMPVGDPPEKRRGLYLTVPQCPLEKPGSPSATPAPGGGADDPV", "test": "Intracellular calcium concentration measurement in human Cav3.2 channel expressing stable cell line (Pharmacological Test 1)", "format": "cell-based", "conditions": "HEK293 cells stably expressing human Cav3.2, Fluo-4 AM fluorescence, KCl stimulation; read-out: Cav3.2 channel inhibitory action", "excerpt": "(1) Construction of Human Cav3.2 Channel Expressing Stable Cell Line\nA sequence in which a HindIII site and a kozak sequence (GCCACC) was provided on a 5′ side of a human Cav3.2 channel open reading frame (ORF) gene and a KpnI site was provided on a 3′ side thereof was incorporated into pcDNA3.1(+) (Thermo Fisher Scientific #V790-20), and the resultant was transfected into a HEK293 cell (ATCC No. CRL-1573) according to a protocol of FuGENE (registered trademark) HD Transfection Reagent (Promega #E2311).\n(2) Method of Measuring Intracellular Calcium Concentration\nThe human Cav3.2 channel expressing stable cell line prepared by the test method (1) was seeded in a 96-well plate using a Dulbecco's modified Eagle's medium (DMEM medium) containing 10% fetal bovine serum (FBS), followed by culturing 37° C. for 48 hours under a 5% CO2 condition. Thereafter, the medium was removed, and each well washed with an A buffer was treated with 80 μL of a fluorescent dye solution containing a liquid mixture of 22 μg of a calcium fluorescent indicator Fluo-4 AM (Dojindo Molecular Technologies, Inc., #F311), 20 μL of dimethyl sulfoxide (DMSO), 1 μL of 10% Pluronic F-127 (Thermo Fisher Scientific #P6866), and 4 mL of the A buffer. After being left to stand for 45 minutes at room temperature under a light shielding condition, the cells were washed with a B buffer. In DMSO having the same final concentration as the test compound as a negative control, and the test compound dissolved in DMSO to have a final concentration of 0.1%, each test compound concentration solution containing the B buffer was added to each well. The cells were left to stand for additional 15 minutes at room temperature under a light shielding condition, and were measured using microplate reader EnVision (PerkinElmer Co., Ltd.) by the following method. First, after measuring background fluorescence in each well, an ionophore was added, and baseline fluorescence was measured. Thereafter, B buffer containing added KCl at a concentration of 83.8 mM was added to each well, and an increase in fluorescence due to calcium influx caused by the stimulation was measured for 10 seconds. Inhibition percentage was calculated from the maximum fluorescence increase value from the baseline, and an IC50 value was calculated by plotting a logarithmic value of the test compound concentration and inhibition activity. The measurement was performed by observing fluorescence of 510 nm emitted when the cells were irradiated with excitation light of 485 nm.\nA buffer: 140 mM NaCl, 5 mM KCl, 1 mM MgCl2, 0.5 mM CaCl2, 10 mM Glucose, 10 mM HEPES, pH 7.3\nB buffer: potassium equilibrium potential: −92 mV", "units": {"IC50": "nM"}, "values": [
      {"smiles": "O=C(Nc1ccc(C(F)(F)F)cc1)C1CCCN1C(=O)C1CC1c1nc2ccccc2[nH]1", "note": "(single isomer, unassigned) [Example 19A, Trans-1-(2-(1H-benzo[d]imidazol-2-yl)cyclopropane-1-carbonyl)-N-(4-(trifluoromethyl)phenyl)pyrrolidine-2-carboxamide]", "IC50": "1000 to 10000"},
      {"smiles": "O=C(Nc1ccc(C(F)(F)F)cc1)C1CCCN1C(=O)C1CC1c1nc2ccccc2[nH]1", "note": "(single isomer, unassigned) [Example 19B, Trans-1-(2-(1H-benzo[d]imidazol-2-yl)cyclopropane-1-carbonyl)-N-(4-(trifluoromethyl)phenyl)pyrrolidine-2-carboxamide]", "IC50": "1000 to 10000"},
      {"smiles": "O=C(NC1CCN(c2ccc(C(F)(F)F)cc2)C1=O)[C@H]1C[C@@H]1c1nc2ccccc2[nH]1", "note": "(single isomer, unassigned) [Example 23A]", "IC50": "1000 to 10000"},
      {"smiles": "O=C(NC1CCN(c2ccc(C(F)(F)F)cc2)C1=O)[C@H]1C[C@@H]1c1nc2ccccc2[nH]1", "note": "(single isomer, unassigned) [Example 23B]", "IC50": "100 to 1000"},
      {"smiles": "COCC(NC(=O)[C@H]1C[C@@H]1c1nc2ccccc2[nH]1)C(=O)Nc1ccc(F)c(C(F)(F)F)c1", "note": "(single isomer, unassigned) [Example 32A]", "IC50": "100 to 1000"},
      {"smiles": "COCC(NC(=O)[C@H]1C[C@@H]1c1nc2ccccc2[nH]1)C(=O)Nc1ccc(F)c(C(F)(F)F)c1", "note": "(single isomer, unassigned) [Example 32B]", "IC50": "100 to 1000"},
      {"smiles": "O=C(NC1CC(=O)N(c2ccc(C(F)(F)F)nc2)C1)[C@H]1C[C@@H]1c1nc2ccccc2[nH]1", "note": "(single isomer, unassigned) [Example 33A]", "IC50": "1000 to 10000"},
      {"smiles": "O=C(NC1CC(=O)N(c2ccc(C(F)(F)F)nc2)C1)[C@H]1C[C@@H]1c1nc2ccccc2[nH]1", "note": "(single isomer, unassigned) [Example 33B]", "IC50": "1000 to 10000"},
      {"smiles": "CC(NC(=O)C1CC1c1nc2ccccc2[nH]1)C(=O)Nc1cccc(C(F)(F)F)c1", "note": "(single isomer, unassigned) [Example 38A, Trans-2-(1H-benzo[d]imidazol-2-yl)-N-(1-oxo-1-((3-(trifluoromethyl)phenyl)amino)propan-2-yl) cyclopropane-1-carboxamide]", "IC50": "≤ 100"},
      {"smiles": "CC(NC(=O)C1CC1c1nc2ccccc2[nH]1)C(=O)Nc1cccc(C(F)(F)F)c1", "note": "(single isomer, unassigned) [Example 38B, Trans-2-(1H-benzo[d]imidazol-2-yl)-N-(1-oxo-1-((3-(trifluoromethyl)phenyl)amino)propan-2-yl) cyclopropane-1-carboxamide]", "IC50": "≤ 100"},
      {"smiles": "CC(C)Oc1ccc(NC(=O)C(C)NC(=O)C2CC2c2nc3ccccc3[nH]2)cc1", "note": "(stereo not drawn) [Example 3, Trans-2-(1H-benzo[d]imidazol-2-yl)-N-(1-((4-isopropoxyphenyl)amino)-1-oxopropan-2-yl) cyclopropane-1-carboxamide]", "IC50": "1000 to 10000"},
      {"smiles": "CC(NC(=O)C1CC1c1nc2ccccc2[nH]1)C(=O)NCc1ccc(S(C)(=O)=O)cc1", "note": "(stereo not drawn) [Example 9, Trans-2-(1H-benzo[d]imidazol-2-yl)-N-(1-((4-(methylsulfonyl)benzyl)amino)-1-oxopropan-2-yl) cyclopropane-1-carboxamide]", "IC50": "> 10000"},
      {"smiles": "CC(NC(=O)C1CC1c1nc2ccccc2[nH]1)C(=O)NC1CN(C(=O)OC(C)(C)C)C1", "note": "(stereo not drawn) [Example 10, tert-Butyl trans-3-(2-(2-(1H-benzo[d]imidazol-2-yl)cyclopropane-1-carboxamido)propanamido)azetidine-1-carboxylate]", "IC50": "> 10000"},
      {"smiles": "CC(NC(=O)C1CC1c1nc2ccccc2[nH]1)C(=O)NC1CCN(C(=O)OC(C)(C)C)CC1", "note": "(stereo not drawn) [Example 11, tert-Butyl trans-4-(2-(2-(1H-benzo[d]imidazol-2-yl)cyclopropane-1-carboxamido)propanamido)piperidine-1-carboxylate]", "IC50": "1000 to 10000"},
      {"smiles": "CC(NC(=O)C1CC1c1nc2ccccc2[nH]1)C(=O)NC1CCNCC1", "note": "(stereo not drawn) [Example 12, Trans-2-(1H-benzo[d]imidazol-2-yl)-N-(1-oxo-1-(piperidin-4-ylamino)propan-2-yl) cyclopropane-1-carboxamide hydrochloride]", "IC50": "1000 to 10000"},
      {"smiles": "CCC(=O)N1CCC(NC(=O)C(C)NC(=O)C2CC2c2nc3ccccc3[nH]2)CC1", "note": "(stereo not drawn) [Example 13, Trans-2-(1H-benzo[d]imidazol-2-yl)-N-(1-oxo-1-((1-propionylpiperidin-4-yl)amino)propan-2-yl) cyclopropane-1-carboxamide]", "IC50": "> 10000"},
      {"smiles": "CC(NC(=O)C1CC1c1nc2ccccc2[nH]1)C(=O)NCc1ccc(C(F)(F)F)cc1", "note": "(stereo not drawn) [Example 14, Trans-2-(1H-benzo[d]imidazol-2-yl)-N-(1-oxo-1-((4-(trifluoromethyl)benzyl)amino)propan-2-yl) cyclopropane-1-carboxamide]", "IC50": "100 to 1000"},
      {"smiles": "CC(NC(=O)C1CC1c1nc2ccccc2[nH]1)C(=O)NCc1ccc(C(F)(F)F)nc1", "note": "(stereo not drawn) [Example 15, Trans-2-(1H-benzo[d]imidazol-2-yl)-N-(1-oxo-1-(((6-(trifluoromethyl)pyridin-3-yl)methyl)amino)propan-2-yl) cyclopropane-1-carboxamide]", "IC50": "1000 to 10000"},
      {"smiles": "CC(NC(=O)C1CC1c1nc2ccccc2[nH]1)C(=O)Nc1cnccn1", "note": "(stereo not drawn) [Example 17, Trans-2-(1H-benzo[d]imidazol-2-yl)-N-(1-oxo-1-(pyrazin-2-ylamino)propan-2-yl) cyclopropane-1-carboxamide]", "IC50": "> 10000"},
      {"smiles": "O=C(NC1(C(=O)Nc2ccccc2C(F)(F)F)CC1)[C@H]1C[C@@H]1c1nc2ccccc2[nH]1", "note": "[Example 25, 1-((1S, 2S)-2-(1H-Benzo[d]imidazol-2-yl)cyclopropane-1-carboxamido)-N-(2-(trifluoromethyl)phenyl) cyclopropane-1-carboxamide]", "IC50": "1000 to 10000"},
      {"smiles": "CCn1c([C@H]2C[C@@H]2C(=O)NC2(C(=O)Nc3ccc(C(F)(F)F)nc3)CC2)nc2ccccc21", "note": "[Example 27, 1-((1S, 2S)-2-(1-Ethyl-1H-benzo[d]imidazol-2-yl)cyclopropane-1-carboxamido)-N-(6-(trifluoromethyl)pyridin-3-yl) cyclopropane-1-carboxamide]", "IC50": "≤ 100"},
      {"smiles": "O=C(NC1(C(=O)Nc2ccc(C(F)(F)F)cc2F)CC1)[C@H]1C[C@@H]1c1nc2ccccc2[nH]1", "note": "[Example 28, 1-((1S, 2S)-2-(1H-Benzo[d]imidazol-2-yl)cyclopropane-1-carboxamido)-N-(2-fluoro-4-(trifluoromethyl)phenyl) cyclopropane-1-carboxamide]", "IC50": "100 to 1000"},
      {"smiles": "O=C(NC1(C(=O)Nc2cncc(C(F)(F)F)c2)CC1)[C@H]1C[C@@H]1c1nc2ccccc2[nH]1", "note": "[Example 29, 1-((1S, 2S)-2-(1H-Benzo[d]imidazol-2-yl)cyclopropane-1-carboxamido)-N-(5-(trifluoromethyl)pyridin-3-yl) cyclopropane-1-carboxamide]", "IC50": "1000 to 10000"},
      {"smiles": "CC(C)N(C(=O)CNC(=O)[C@H]1C[C@@H]1c1nc2ccccc2[nH]1)c1ccc(C(F)(F)F)nc1", "note": "[Example 30, (1S, 2S)-2-(1H-Benzo[d]imidazol-2-yl)-N-(2-(isopropyl (6-(trifluoromethyl)pyridin-3-yl)amino)-2-oxoethyl) cyclopropane-1-carboxamide]", "IC50": "> 10000"},
      {"smiles": "O=C(NC1(C(=O)Nc2ccc(F)c(C(F)(F)F)c2)CC1)[C@H]1C[C@@H]1c1nc2ccccc2[nH]1", "note": "[Example 31, 1-((1S, 2S)-2-(1H-Benzo[d]imidazol-2-yl)cyclopropane-1-carboxamido)-N-(4-fluoro-3-(trifluoromethyl)phenyl) cyclopropane-1-carboxamide]", "IC50": "≤ 100"},
      {"smiles": "O=C(NC1(C(=O)Nc2ccc(F)c(C(F)(F)F)c2)CC1)[C@H]1C[C@@H]1c1nc2cc(Cl)ccc2[nH]1", "note": "[Example 34, 1-((1S, 2S)-2-(5-Chloro-1H-benzo[d]imidazol-2-yl)cyclopropane-1-carboxamido)-N-(4-fluoro-3-(trifluoromethyl)phenyl) cyclopropane-1-carboxamide]", "IC50": "≤ 100"},
      {"smiles": "O=C(NC1(C(=O)Nc2cc(Cl)cc(Cl)c2)CC1)[C@H]1C[C@@H]1c1nc2ccccc2[nH]1", "note": "[Example 35, 1-((1S, 2S)-2-(1H-Benzo[d]imidazol-2-yl)cyclopropane-1-carboxamido)-N-(3,5-dichlorophenyl) cyclopropane-1-carboxamide]", "IC50": "100 to 1000"},
      {"smiles": "O=C(NC1(C(=O)Nc2cccc(C(F)(F)F)c2)CCC1)[C@H]1C[C@@H]1c1nc2ccccc2[nH]1", "note": "[Example 36, 1-((1S, 2S)-2-(1H-Benzo[d]imidazol-2-yl)cyclopropane-1-carboxamido)-N-(3-(trifluoromethyl)phenyl) cyclobutane-1-carboxamide]", "IC50": "≤ 100"}
    ]}
  ]
}
